A short description of experiment [1]: Inhibition of HIV1 integrase strand transfer activity. Details: species or system Human immunodeficiency virus 1.
In experiment [2] the test system is Human immunodeficiency virus 1. As to the kind of experiment: Antiviral activity against HIV1 infected MT4 cells in presence of 10% FBS. The following applies: Human immunodeficiency virus 1, MT4. The format is functional.
Experiment [3] relates to Human immunodeficiency virus 1. Briefly: Antiviral activity against HIV1 infected MT4 cells in presence of 50% NHS. The format is functional, organism-based. As to conditions: Human immunodeficiency virus 1, MT4.

As for `CNC(=O)c1nn2c(c1O)C(=O)N(Cc1ccc(F)cc1)CC2`, the IC50 in experiment [1] was 40 nM; in experiment [3], more than 10000 nM. Moreover, the IC95 in experiment [2] was 5000 nM.

Regarding `CNC(=O)c1cc(F)ccc1CNC(=O)c1nn2c(c1O)C(=O)N(C)C[C@@H]2c1ccccc1`, the IC50 in experiment [1] stood at 74 nM. Besides, the IC95 in experiment [2] and in experiment [3] was 63 nM in each case.

`CN1CC(c2csc(N)n2)n2nc(C(=O)NCc3ccc(F)cc3)c(O)c2C1=O` (stereo not given) gave an IC50 in experiment [1] not above 10 nM. The IC95 in experiment [2] is 500 nM; in experiment [3], 1000 nM.

Regarding `CC1CN(C)C(=O)c2c(O)c(C(=O)NCc3ccc(F)cc3)nn21` (stereo not given), the IC50 in experiment [1] was found to be 13 nM.

The molecule `CN1CCCn2nc(C(=O)NCc3ccc(F)cc3)c(O)c2C1=O` came in with an IC50 in experiment [1] of 470 nM.

Consider `CN1CCn2cc(C(=O)NCc3ccc(F)cc3)c(O)c2C1=O`, for which, in experiment [1], the IC50 was 400 nM.

`CNC(=O)c1cccc(C2CN(C)C(=O)c3c(O)c(C(=O)NCc4ccc(F)cc4)nn32)c1` (stereo not given) showed an IC50 in experiment [1] not above 10 nM. Further, the IC95 in experiment [2] and in experiment [3] was 1000 nM throughout.

As to `CC1Cn2nc(C(=O)NCc3ccc(F)cc3)c(O)c2C(=O)N1C` (stereo not given), the IC50 in experiment [1] was 40 nM.

In experiment [1], `CNC(=O)c1cc(F)ccc1CNC(=O)c1nn2c(c1O)C(=O)N(C)C[C@H]2c1ccccc1` registered an IC50 of 62 nM. The IC95 in experiment [2] and in experiment [3] was 250 nM in each case.

Regarding `CN1C(=O)c2c(O)c(C(=O)NCc3ccc(F)cc3)nn2CC1c1ccccc1` (stereo not given), in experiment [1], 110 nM corresponded to half-maximal inhibition (IC50).

As for `CC(C)C1CN(C)C(=O)c2c(O)c(C(=O)NCc3ccc(F)cc3)nn21` (stereo not given), the IC50 in experiment [1] turned out to be 20 nM. Further, the IC95 in experiment [2] amounted to 63 nM; in experiment [3] it was 250 nM.

Regarding `CNC(=O)c1nn2c(c1O)C(=O)N(Cc1ccc(F)cc1)CC2c1ccccc1` (stereo not given), the midpoint of inhibition in experiment [1], the IC50, lay at 130 nM. Also, the IC95 in experiment [2] was 10000 nM; in experiment [3], more than 10000 nM.

`CN1CCn2nc(C(=O)NCc3ccc(F)cc3)c(O)c2C1=O`: the IC50 in experiment [1] was not above 10 nM. In addition, the IC95 worked out at 630 nM in experiment [2] and 2500 nM in experiment [3].

`CN1CC(c2ccccc2)n2nc(C(=O)NCc3ccc(F)cc3)c(O)c2C1=O` (stereo not given): the IC50 in experiment [1] is not above 10 nM. The values for the IC95 in experiment [2] and in experiment [3] were 50 nM and 310 nM, respectively.

In turn, `CN1CC(c2cccnc2)n2nc(C(=O)NCc3ccc(F)cc3)c(O)c2C1=O` (stereo not given) returned an IC50 in experiment [1] not above 10 nM. The IC95 worked out at 250 nM in experiment [2] and 500 nM in experiment [3].

The values above are taken from ChEMBL document CHEMBL1142310, “Design and synthesis of substituted 4-oxo-4,5,6,7-tetrahydropyrazolo[1,5-a]pyrazine-2-carboxamides, novel HIV-1 integrase inhibitors” (Bioorg Med Chem Lett, 2008).
